# Measurements taken from patent US20120004281A1, “RNA Interference Mediated Inhibition of the Nerve Growth Factor Beta Chain (NGFB) Gene Expression Using Short Interfering Nucleic Acid (siNA)” (Merck Sharp & Dohme Corp, priority 2009, published 2012).
# [invAb] = inverted abasic unit; m = 2'-O-methyl; r = 2'-OH (RNA); f = 2'-fluoro
# Tested on: NGFβ mRNA
# Experiment: NGFβ mRNA knock-down in Calu-1 cells (RNAiMax transfection, Taqman RT-PCR)
# Assay type: cell-based, human
# Conditions: human Calu-1 cells, 10 nM siNA, 24 hrs post-transfection, relative to non-targeting control, normalized to GAPDH
# Experimental: Calu-1 (human; ATCC cat# HTB-54): Cells were cultured at 37° C. in the presence of 5% CO2 and grown in McCoy's 5a medium supplemented with fetal bovine serum at a final concentration of 10% and 100 μg/mL of streptomycin and 100 U/mL penicillin.
# All transfections were performed using RNAiMax (Invitrogen Cat# 13778-150) as per the manufacturer's instructions.
# Cells were plated in all wells of a tissue-culture treated, 96-well plate at a final count of 5,000 cells/well in […], of appropriate culture media. Cells were cultured for 24 hours after plating at 37° C. in the presence of 5% CO2.
# After 24 hours, complexes containing siNA and RNAiMax were created as follows: A solution of RNAiMax diluted 33-fold in OPTI-MEM was prepared. In parallel, solutions of the siNAs for testing were prepared to a final concentration of 120 nM in OPTI-MEM. After incubation of RNAiMax/OPTI-MEM solution at room temperature for 5 min, an equal volume of the siRNA solution and the RNAiMax solution were added together for each of the siNAs.
# This solution was incubated at room temperature for 20 minutes. After incubation, 20 uL of the solution was added to each of the relevant wells.
# The final concentration of siNA in each well was 10 nM and the final volume of RNAiMax in each well was 0.3u1.
# The time of incubation with the RNAiMax-siNA complexes was 24 hours, unless otherwise indicated. There was no change in media between the transfection and harvesting of the cells unless otherwise indicated.
# Dose response curves were carried out in a similar fashion in 96-well plates, while maintaining a constant amount of RNAiMax in each transfection.
# RNA was extracted from a 96-well plate using the TaqMan® Gene Expression Cells-to-CT™ Kit (Cat# 4399002) with a modified protocol. Briefly, a 60 uL (1 plate) or 110 uL (2 plates) of the Lysis Solution with DNase I was dispensed into each well of the Lysis Buffer Plate (twin.tec full skirt plate). The lysis buffer and stop plates were stored at 4° C. until the cells were washed.
# The plate was spun at 1100 rpm for 5 minutes. The culture medium was aspirated and discarded from the wells of the culture plate. The lysis was performed automatically using a BioMek FX instrument and method. After the Biomek method was completed, the lysis plate was incubated for 2 min. at room temperature. The lysis plate can be stored for 2 hours at 4° C., or at −20° C. or −80° C. for two months.
# Each well of the reverse transcription plate required 10 uL of 2× reverse transcriptase Buffer, luL of 20× reverse transcription enzyme and 2 uL of nuclease-free water. The reverse transcription master mix was prepared by mixing 2× reverse transcription buffer, 20× reverse transcription enzyme mix, and nuclease-free water. 13 uL of the reverse transcription master mix was dispensed into each well of the reverse transcription plate (semi-skirted). A separate reverse transcription plate was prepared for each cell plate. The plate was loaded onto a Biomek NX or Biomek FX Dual-96 and the Biomek method was run. The program is programmed to automatically added 7 uL of lysate from the cell lysis procedure described above into each well of the reverse transcription plate. The plate is sealed and spun on a centrifuge (1000 rpm for 30 seconds) to settle the contents to the bottom of the reverse transcription plate. The plate is placed in a thermocycler at 37° C. for 60 min, 95° C. for 5 min, and 4° C. until the plate is removed from the thermocycler. Upon removal, if not used immediately, the plate was frozen at −20° C.
# A series of probes and primers were used to detect the various mRNA transcripts of the genes of NGFβ, BDNF and GAPDH in human cell lines. All the Taqman probes and primers for the experiments here-in described were supplied as pre-validated sets by Applied Biosystems, Inc. (see Table 3). The assays were performed on an ABI 7900 instrument, according to the manufacturer's instructions. […]
row,Substance,% KD in CaLu-1 Cells
1,"25408-DC: siNA duplex, NGFβ target site 653; sense B GAGGuGAAcAuuAAcAAcA TTB (SEQ ID NO: 41), antisense UGUuGuuAAuGuucAccucUU (SEQ ID NO: 42) (sense GAGGUGAACAUUAACAACATT; antisense UGUUGUUAAUGUUCACCUCUU; sense: DNA at AGT, 2'-fluoro at CU, [invAb] at 5' end, 3' end, backbone not given here; antisense: sugars from the 5' end rrrfmffmmfmfffmffffmm, backbone not given here)",26%
2,"25409-DC: siNA duplex, NGFβ target site 468; sense B cucAGGAucuGGAcuucGA TTB (SEQ ID NO: 43), antisense UCGAAGuccAGAuccuGAGUU (SEQ ID NO: 44) (sense CUCAGGAUCUGGACUUCGATT; antisense UCGAAGUCCAGAUCCUGAGUU; sense: DNA at AGT, 2'-fluoro at CU, [invAb] at 5' end, 3' end, backbone not given here; antisense: sugars from the 5' end rrrmmmfffmmmffffmmmmm, backbone not given here)",52%
3,"25410-DC: siNA duplex, NGFβ target site 451; sense B ccGuGAAGcuGcAGAcAcu TTB (SEQ ID NO: 45), antisense AGUGucuGcAGcuucAcGGUU (SEQ ID NO: 46) (sense CCGUGAAGCUGCAGACACUTT; antisense AGUGUCUGCAGCUUCACGGUU; sense: DNA at AGT, 2'-fluoro at CU, [invAb] at 5' end, 3' end, backbone not given here; antisense: sugars from the 5' end rrrmfffmfmmffffmfmmmm, backbone not given here)",70%
4,"25411-DC: siNA duplex, NGFβ target site 101; sense B uccGGAcccAAuAAcAGuu TTB (SEQ ID NO: 47), antisense AACuGuuAuuGGGuccGGAUU (SEQ ID NO: 48) (sense UCCGGACCCAAUAACAGUUTT; antisense AACUGUUAUUGGGUCCGGAUU; sense: DNA at AGT, 2'-fluoro at CU, [invAb] at 5' end, 3' end, backbone not given here; antisense: sugars from the 5' end rrrfmffmffmmmfffmmmmm, backbone not given here)",54%
5,"25412-DC: siNA duplex, NGFβ target site 267; sense B cccAAGcccAcuGGAcuAA TTB (SEQ ID NO: 49), antisense UUAGuccAGuGGGcuuGGGUU (SEQ ID NO: 50) (sense CCCAAGCCCACUGGACUAATT; antisense UUAGUCCAGUGGGCUUGGGUU; sense: DNA at AGT, 2'-fluoro at CU, [invAb] at 5' end, 3' end, backbone not given here; antisense: sugars from the 5' end rrrmfffmmfmmmfffmmmmm, backbone not given here)",−3%
6,"25414-DC: siNA duplex, NGFβ target site 615; sense B ccAcAGAcAucAAGGGcAA TTB (SEQ ID NO: 53), antisense UUGcccuuGAuGucuGuGGUU (SEQ ID NO: 54) (sense CCACAGACAUCAAGGGCAATT; antisense UUGCCCUUGAUGUCUGUGGUU; sense: DNA at AGT, 2'-fluoro at CU, [invAb] at 5' end, 3' end, backbone not given here; antisense: sugars from the 5' end rrrfffffmmfmfffmfmmmm, backbone not given here)",61%
7,"25415-DC: siNA duplex, NGFβ target site 609; sense B ccAccGccAcAGAcAucAA TTB (SEQ ID NO: 55), antisense UUGAuGucuGuGGcGGuGGUU (SEQ ID NO: 56) (sense CCACCGCCACAGACAUCAATT; antisense UUGAUGUCUGUGGCGGUGGUU; sense: DNA at AGT, 2'-fluoro at CU, [invAb] at 5' end, 3' end, backbone not given here; antisense: sugars from the 5' end rrrmfmfffmfmmfmmfmmmm, backbone not given here)",61%
8,"25418-DC: siNA duplex, NGFβ target site 650; sense B GGAGAGGuGAAcAuuAAcA TTB (SEQ ID NO: 61), antisense UGUuAAuGuucAccucuccUU (SEQ ID NO: 62) (sense GGAGAGGUGAACAUUAACATT; antisense UGUUAAUGUUCACCUCUCCUU; sense: DNA at AGT, 2'-fluoro at CU, [invAb] at 5' end, 3' end, backbone not given here; antisense: sugars from the 5' end rrrfmmfmfffmfffffffmm, backbone not given here)",26%
9,"25419-DC: siNA duplex, NGFβ target site 648; sense B uGGGAGAGGuGAAcAuuAA TTB (SEQ ID NO: 63), antisense UUAAuGuucAccucucccAUU (SEQ ID NO: 64) (sense UGGGAGAGGUGAACAUUAATT; antisense UUAAUGUUCACCUCUCCCAUU; sense: DNA at AGT, 2'-fluoro at CU, [invAb] at 5' end, 3' end, backbone not given here; antisense: sugars from the 5' end rrrmfmfffmffffffffmmm, backbone not given here)",25%
10,"25420-DC: siNA duplex, NGFβ target site 510; sense B AcAGGAcucAcAGGAGcAA TTB (SEQ ID NO: 65), antisense UUGcuccuGuGAGuccuGuUU (SEQ ID NO: 66) (sense ACAGGACUCACAGGAGCAATT; antisense UUGCUCCUGUGAGUCCUGUUU; sense: DNA at AGT, 2'-fluoro at CU, [invAb] at 5' end, 3' end, backbone not given here; antisense: sugars from the 5' end rrrfffffmfmmmffffmfmm, backbone not given here)",44%
11,"25421-DC: siNA duplex, NGFβ target site 675; sense B uAuucAAAcAGuAcuuuuu TTB (SEQ ID NO: 67), antisense AAAAAGuAcUGuuuGAAuAUU (SEQ ID NO: 68) (sense UAUUCAAACAGUACUUUUUTT; antisense AAAAAGUACUGUUUGAAUAUU; sense: DNA at AGT, 2'-fluoro at CU, [invAb] at 5' end, 3' end, backbone not given here; antisense: sugars from the 5' end rrrmmmfmfmmfffmmmfmmm, backbone not given here)",56%
12,"25423-DC: siNA duplex, NGFβ target site 519; sense B AcAGGAGcAAGcGGucAuc TTB (SEQ ID NO: 71), antisense GAUGAccGcuuGcuccuGuUU (SEQ ID NO: 72) (sense ACAGGAGCAAGCGGUCAUCTT; antisense GAUGACCGCUUGCUCCUGUUU; sense: DNA at AGT, 2'-fluoro at CU, [invAb] at 5' end, 3' end, backbone not given here; antisense: sugars from the 5' end rrrmmffmfffmfffffmfmm, backbone not given here)",40%
